Entries after “also recorded” stand apart in the source; their conditions may differ.
Assays:
deoxyhypusine synthase [1] = molecular target: T1, deoxyhypusine synthase (Rattus norvegicus, UniProt Q6AY53); details: earlier publications; cited from earlier work
T1 construct: full-length homotetramer; substrate was human eIF-5A precursor expressed in E. coli
T1 sequence (Q6AY53 1-369): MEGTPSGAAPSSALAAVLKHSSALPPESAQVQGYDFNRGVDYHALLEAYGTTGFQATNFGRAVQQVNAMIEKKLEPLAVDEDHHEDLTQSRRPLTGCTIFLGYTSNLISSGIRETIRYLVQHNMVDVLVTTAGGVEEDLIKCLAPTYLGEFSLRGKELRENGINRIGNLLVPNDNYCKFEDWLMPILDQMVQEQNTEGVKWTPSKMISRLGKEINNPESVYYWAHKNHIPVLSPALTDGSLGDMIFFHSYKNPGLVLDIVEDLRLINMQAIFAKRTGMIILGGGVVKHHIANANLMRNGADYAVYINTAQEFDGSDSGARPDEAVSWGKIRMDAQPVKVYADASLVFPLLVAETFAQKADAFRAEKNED

[2] = molecular target: T2, deoxyhypusine synthase from rat testis (Rattus norvegicus, UniProt Q6AY53); details: cited from earlier work
T2 construct: as catalyzed by deoxyhypusine synthase from rat testis; from tissue; host or cells: rat testis
T2 sequence (Q6AY53 1-369): T1 sequence (Q6AY53 1-369)

[3] = cited from earlier work
[4] = tested on: deoxyhypusine synthase from HTC cells; details: 20 μM inhibitor; 1 μM spermidine; precursor from DFMO-treated HTC cells; cited from earlier work
[5] = molecular target: T2, deoxyhypusine synthase from rat testis; assay: Inhibition of deoxyhypusine synthase ([3H]deoxyhypusine formation from [3H]spermidine), IC50/Ki; format: biochemical; details: for inhibition of deoxyhypusine synthase (in words): pH 9.3, 37° C., 1 hour, 2.4 μM [3H]spermidine; for relative inhibitory potency (in words): comparison with parent amine, bisguanylated counterpart or another inhibitor
Experimental: The enzyme assay was performed as previously described (see Wolff et al. (1990) J. Biol. Chem. 265:4793-4799; and Park et al. (1991) J. Biol. Chem. 266:7988-7994). A typical assay mixture included 0.2M glycine, 1 mM dithiothreitol, 0.5 mM NAD^+, 2.4 micromolar (μM) [1,8-^3 H] spermidine, 1 μM ec-eIF-5A(Lys), 25 micrograms (μg) bovine serum albumin, and 3-15 units of enzyme in a total volume of 20 microliters (μl). Incubations were carried out at pH 9.3 and 37° C. for 1 hour. […] Percent inhibition was plotted versus log inhibitor concentration in order to obtain graphic estimates of IC50 values, i.e., the concentrations inhibiting [^3 H]deoxyhypusine production by 50%. The IC50 values reported in the tables were calculated by fitting the data points to equation 1 where x=% inhibition and I is the inhibitor concentration. [formula] The nature of the inhibition was determined by plotting reciprocal velocities of [^3 H]deoxyhypusine production against reciprocals of [^3 H]spermidine concentrations at a constant fixed level of ec-eIF-5A(Lys) (1 μM) and at set inhibitor concentrations. […] Estimates of Ki values were made by fitting the data to equation 2; wherein v is the velocity of the reaction, V is the maximum velocity, S is the substrate concentration, Km is Michaeli's constant, Ki is the inhibition constant, and I is the inhibitor concentration. [formula] All fits were performed by means of an interactive curve-fitting program, MLAB, developed and modified at the National Institutes of Health to run on an IBM personal computer.

deoxyhypusine synthase [6] = molecular target: T1, deoxyhypusine synthase; assay: Substrate property for deoxyhypusine synthase; format: biochemical; details: conditions similar to those for N-(3-aminopropyl)cadaverine
Experimental: (See Wolff et al. (1990) J. Biol. Chem. 265:4793-4799.) The Km(app) values for the substrates, spermidine, NAD^+ and eIF-5A precursor from spermidine-depleted CHO cells, have been calculated as approximately 4, 30, and 0.08 μM, respectively.
This finding is consistent with the conclusion that this lysine is the only one in the precursor that is converted to hypusine, both in cells and in the enzyme reaction in vitro.

[7] = tested on: pea seedling diamine oxidase; details: cited from earlier work
[8] = tested on: oat seedling polyamine oxidase; details: cited from earlier work
deoxyhypusine synthase [9] = details: cited from earlier work

Compound	pKa of N8-amino group [3]	inhibition of deoxyhypusine synthase [4] [%]	inhibition of deoxyhypusine synthase (in words) [5]	substrate property for deoxyhypusine synthase (deoxyhypusine synthase [6])	relative inhibitory potency (in words) [5]	further results
16-membered peptide: modeled on residues 40-55 of the human eIF-5A precursor protein and encompassing Lys^50 (IVEMSTSKTGKHGHAK; UniProt P63241 40-55, looked up, fragment)	–	–	–	–	–	substrate or cofactor function for deoxyhypusine synthase (deoxyhypusine synthase [1]): failed to act as a substrate; inhibition by precursor-related peptide [2]: only weak inhibition
NCCCNCC(F)CCN (stereo not drawn) [Compound 36, 6-fluorospermidine]	9.55	86	quite strong inhibitors; also recorded: effective inhibition; also recorded: act as inhibitors	–	–	pKa of N1-amino group ([3]; N1-amino group): 10.40
N=C(N)NCCCNCCCCN [Compound 51, N^1 -guanylspermidine]	–	–	high affinities for the enzyme	Neither displayed any detectable substrate property	exceeded bisguanylated spermidine (compound 53) as inhibitors; also recorded: uniformly more efficient inhibition	–
N=C(N)NCCCCNCCCN [Compound 52, N^8 -guanylspermidine]	–	–	high affinities for the enzyme	Neither displayed any detectable substrate property; also recorded: If it were, it would function as a substrate which it does not	exceeded bisguanylated spermidine (compound 53) as inhibitors; also recorded: uniformly more efficient inhibition; also recorded: somewhat more effective inhibitor than N^1 -guanylspermidine (compound 51)	–
N=C(N)NCCCCCCCCNCCCCCCCCNC(=N)N [Compound 40, guazatine]	–	–	–	–	–	inhibition of pea seedling diamine oxidase [7]: known to inhibit; inhibition of oat seedling polyamine oxidase [8]: known to inhibit; inhibition of deoxyhypusine synthase (literature) (deoxyhypusine synthase [9]): strong inhibitor
NCCCNCCC(F)(F)CN [Compound 38, 7,7-Difluorospermidine]	6.64	0	devoid of inhibitory activity; also recorded: no inhibition	–	–	–
